Legend:
Assay in all cases: biochemical
Design in all cases: KINOMEscan competition binding panel (Eurofins DiscoverX), single concentration, percent inhibition
Details in all cases: read-out: 15 at 1 µM % inhibition
[1] = molecular target: T1, AMPK-alpha1 (Homo sapiens, UniProt Q13131)
T1 construct: gene PRKAA1
Method in brief: (§1)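 Compounds were submitted at 1 µM to a KINOMEscan assay covering more than 400 human kinases. The screen served to define the selectivity profile.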

[2] = molecular target: SLK (Homo sapiens, UniProt Q9H2G2)
Method in brief: as §1

[3] = molecular target: TAOK2 (Homo sapiens, UniProt Q9UL54)
Sequence of TAOK2 (Q9UL54 whole entry): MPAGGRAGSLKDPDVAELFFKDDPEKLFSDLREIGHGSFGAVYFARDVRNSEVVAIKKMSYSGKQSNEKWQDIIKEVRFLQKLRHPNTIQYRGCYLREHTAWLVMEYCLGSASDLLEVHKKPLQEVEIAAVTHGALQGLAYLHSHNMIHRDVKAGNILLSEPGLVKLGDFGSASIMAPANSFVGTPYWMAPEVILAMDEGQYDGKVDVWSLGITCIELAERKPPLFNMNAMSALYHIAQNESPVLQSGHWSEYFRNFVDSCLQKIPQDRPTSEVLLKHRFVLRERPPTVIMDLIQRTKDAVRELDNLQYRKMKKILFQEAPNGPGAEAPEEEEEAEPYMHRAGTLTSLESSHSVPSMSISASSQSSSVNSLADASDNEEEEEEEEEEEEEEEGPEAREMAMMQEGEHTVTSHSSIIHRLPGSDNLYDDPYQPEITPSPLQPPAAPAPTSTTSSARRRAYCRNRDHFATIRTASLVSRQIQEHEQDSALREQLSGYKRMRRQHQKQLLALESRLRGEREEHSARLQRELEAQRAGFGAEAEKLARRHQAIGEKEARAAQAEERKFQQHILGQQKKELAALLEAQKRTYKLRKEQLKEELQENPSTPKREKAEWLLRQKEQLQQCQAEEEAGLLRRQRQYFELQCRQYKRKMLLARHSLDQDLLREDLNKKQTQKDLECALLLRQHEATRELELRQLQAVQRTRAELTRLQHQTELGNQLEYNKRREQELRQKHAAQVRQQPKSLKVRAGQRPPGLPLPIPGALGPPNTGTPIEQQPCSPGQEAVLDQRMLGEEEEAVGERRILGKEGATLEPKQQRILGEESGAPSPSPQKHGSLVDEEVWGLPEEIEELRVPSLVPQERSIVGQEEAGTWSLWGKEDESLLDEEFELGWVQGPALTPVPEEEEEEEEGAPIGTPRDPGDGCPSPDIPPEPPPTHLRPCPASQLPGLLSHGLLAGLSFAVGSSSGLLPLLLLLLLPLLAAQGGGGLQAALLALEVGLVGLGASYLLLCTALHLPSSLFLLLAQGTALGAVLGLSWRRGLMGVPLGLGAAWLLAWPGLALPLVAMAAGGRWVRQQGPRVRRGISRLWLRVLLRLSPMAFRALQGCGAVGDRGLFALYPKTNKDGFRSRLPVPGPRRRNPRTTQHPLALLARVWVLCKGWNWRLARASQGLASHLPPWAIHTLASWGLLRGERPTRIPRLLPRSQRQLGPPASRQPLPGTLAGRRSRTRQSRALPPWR
Method in brief: as §1

[4] = molecular target: FLT3(ITD) (Homo sapiens, UniProt P36888, ITD)
Sequence of FLT3(ITD) (P36888 564-993, change not shown): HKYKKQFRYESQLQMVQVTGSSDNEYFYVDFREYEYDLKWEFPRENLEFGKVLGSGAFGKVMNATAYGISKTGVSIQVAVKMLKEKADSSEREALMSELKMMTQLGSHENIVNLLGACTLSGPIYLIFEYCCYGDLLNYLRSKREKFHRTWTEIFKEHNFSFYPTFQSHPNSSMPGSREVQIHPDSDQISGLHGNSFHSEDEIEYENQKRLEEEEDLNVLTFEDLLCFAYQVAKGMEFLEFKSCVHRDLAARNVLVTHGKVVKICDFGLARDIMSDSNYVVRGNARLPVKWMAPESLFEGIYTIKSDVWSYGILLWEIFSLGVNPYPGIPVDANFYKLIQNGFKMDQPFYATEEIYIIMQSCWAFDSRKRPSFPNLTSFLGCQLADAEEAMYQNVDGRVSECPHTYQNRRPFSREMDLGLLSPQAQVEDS
Method in brief: as §1

[5] = molecular target: MAP4K5 (Homo sapiens, UniProt Q9Y4K4)
Method in brief: as §1

[6] = molecular target: EIF2AK1 (Homo sapiens, UniProt Q9BQI3)
Method in brief: as §1

[7] = molecular target: T2, ERK2 (Homo sapiens, UniProt P28482)
T2 construct: gene MAPK1
Method in brief: as §1

[8] = molecular target: TLK2 (Homo sapiens, UniProt Q86UE8)
Sequence of TLK2 (Q86UE8 whole entry): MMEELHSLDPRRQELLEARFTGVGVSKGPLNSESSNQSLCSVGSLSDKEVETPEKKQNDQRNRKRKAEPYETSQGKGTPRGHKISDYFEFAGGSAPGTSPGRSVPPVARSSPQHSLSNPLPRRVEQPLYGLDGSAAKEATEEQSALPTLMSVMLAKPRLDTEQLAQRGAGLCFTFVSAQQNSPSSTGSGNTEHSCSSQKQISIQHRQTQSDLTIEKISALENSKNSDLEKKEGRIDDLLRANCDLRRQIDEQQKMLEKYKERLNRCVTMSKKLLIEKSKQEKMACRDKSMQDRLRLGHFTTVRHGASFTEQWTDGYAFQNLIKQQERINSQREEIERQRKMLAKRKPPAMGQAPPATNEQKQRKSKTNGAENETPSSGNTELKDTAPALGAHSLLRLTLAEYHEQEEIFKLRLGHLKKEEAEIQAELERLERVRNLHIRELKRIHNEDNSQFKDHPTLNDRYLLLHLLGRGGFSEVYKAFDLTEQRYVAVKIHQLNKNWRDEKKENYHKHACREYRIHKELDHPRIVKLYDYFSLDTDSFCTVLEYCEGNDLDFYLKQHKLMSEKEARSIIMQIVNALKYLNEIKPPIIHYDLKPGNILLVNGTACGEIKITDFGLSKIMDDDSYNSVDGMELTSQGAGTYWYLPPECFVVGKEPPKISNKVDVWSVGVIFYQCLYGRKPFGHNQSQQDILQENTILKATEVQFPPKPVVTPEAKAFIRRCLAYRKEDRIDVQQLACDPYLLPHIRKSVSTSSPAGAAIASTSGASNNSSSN
Method in brief: as §1

[9] = molecular target: T3, VEGFR2 (Homo sapiens, UniProt P35968)
T3 construct: gene KDR
Method in brief: as §1

[10] = molecular target: T4, DCAMKL3 (Homo sapiens, UniProt Q9C098)
T4 construct: gene DCLK3
T4 sequence (Q9C098 whole entry): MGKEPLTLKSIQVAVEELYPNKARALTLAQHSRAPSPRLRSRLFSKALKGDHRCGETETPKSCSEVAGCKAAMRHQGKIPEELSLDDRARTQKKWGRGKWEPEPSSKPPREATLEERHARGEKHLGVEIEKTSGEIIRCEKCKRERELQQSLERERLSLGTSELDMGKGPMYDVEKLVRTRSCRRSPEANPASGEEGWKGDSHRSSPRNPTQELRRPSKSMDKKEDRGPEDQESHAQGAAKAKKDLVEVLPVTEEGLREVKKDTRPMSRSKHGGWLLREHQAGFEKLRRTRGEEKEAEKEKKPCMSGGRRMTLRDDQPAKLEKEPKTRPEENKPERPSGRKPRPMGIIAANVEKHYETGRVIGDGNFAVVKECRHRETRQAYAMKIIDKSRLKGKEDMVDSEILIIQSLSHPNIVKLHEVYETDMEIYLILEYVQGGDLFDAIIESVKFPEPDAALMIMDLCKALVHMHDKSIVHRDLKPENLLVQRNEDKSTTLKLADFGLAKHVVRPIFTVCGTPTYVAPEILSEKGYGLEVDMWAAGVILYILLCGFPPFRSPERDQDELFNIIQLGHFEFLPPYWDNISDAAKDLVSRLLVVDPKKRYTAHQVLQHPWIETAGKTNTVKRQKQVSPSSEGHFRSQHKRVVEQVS
Method in brief: as §1

[11] = molecular target: AKT2 (Homo sapiens, UniProt P31751)
Sequence of AKT2 (P31751 whole entry): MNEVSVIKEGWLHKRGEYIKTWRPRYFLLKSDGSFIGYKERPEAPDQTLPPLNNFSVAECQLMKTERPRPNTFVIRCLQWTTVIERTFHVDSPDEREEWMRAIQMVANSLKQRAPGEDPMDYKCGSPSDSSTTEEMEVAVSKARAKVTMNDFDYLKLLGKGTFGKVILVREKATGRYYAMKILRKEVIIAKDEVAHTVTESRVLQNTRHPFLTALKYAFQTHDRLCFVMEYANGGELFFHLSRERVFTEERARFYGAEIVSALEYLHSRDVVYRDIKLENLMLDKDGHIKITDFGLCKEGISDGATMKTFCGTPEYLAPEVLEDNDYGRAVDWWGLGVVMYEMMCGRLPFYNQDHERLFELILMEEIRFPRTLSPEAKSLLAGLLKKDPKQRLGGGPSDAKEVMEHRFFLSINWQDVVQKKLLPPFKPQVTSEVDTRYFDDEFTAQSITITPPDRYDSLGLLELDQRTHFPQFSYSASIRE
Method in brief: as §1

[12] = molecular target: T5, TIE2 (Homo sapiens, UniProt Q02763)
T5 construct: gene TEK
Method in brief: as §1

[13] = molecular target: T6, PCTK3 (Homo sapiens, UniProt Q07002)
T6 construct: gene CDK18
Method in brief: as §1

[14] = molecular target: T7, GCN2(Kin.Dom.2,S808G) (Homo sapiens, UniProt Q9P2K8, S808G)
T7 construct: gene EIF2AK4; Kin.Dom.2
Method in brief: as §1

[15] = molecular target: CHEK1 (Homo sapiens, UniProt O14757)
Method in brief: as §1

[16] = molecular target: KIT (Homo sapiens, UniProt P10721)
Method in brief: as §1

[17] = molecular target: T8, MLK1 (Homo sapiens, UniProt P80192)
T8 construct: gene MAP3K9
Method in brief: as §1

[18] = molecular target: GRK4 (Homo sapiens, UniProt P32298)
Sequence of GRK4 (P32298 whole entry): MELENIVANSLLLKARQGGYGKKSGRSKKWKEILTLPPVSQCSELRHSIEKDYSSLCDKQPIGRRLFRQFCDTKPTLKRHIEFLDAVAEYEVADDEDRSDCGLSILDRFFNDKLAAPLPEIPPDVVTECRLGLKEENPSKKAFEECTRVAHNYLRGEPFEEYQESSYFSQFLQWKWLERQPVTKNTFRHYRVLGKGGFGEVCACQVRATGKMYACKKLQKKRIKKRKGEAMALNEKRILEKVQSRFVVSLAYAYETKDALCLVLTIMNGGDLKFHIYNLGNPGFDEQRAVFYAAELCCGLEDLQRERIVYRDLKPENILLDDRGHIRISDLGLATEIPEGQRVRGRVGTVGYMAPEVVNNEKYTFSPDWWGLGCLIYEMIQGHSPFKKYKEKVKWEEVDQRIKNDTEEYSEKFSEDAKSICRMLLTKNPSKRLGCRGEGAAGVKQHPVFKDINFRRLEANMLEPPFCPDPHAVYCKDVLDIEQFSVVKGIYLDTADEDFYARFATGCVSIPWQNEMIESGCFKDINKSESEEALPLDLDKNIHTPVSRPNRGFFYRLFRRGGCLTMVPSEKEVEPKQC
Method in brief: as §1

[19] = molecular target: PHKG1 (Homo sapiens, UniProt Q16816)
Method in brief: as §1

[20] = molecular target: LYN (Homo sapiens, UniProt P07948)
Method in brief: as §1

[21] = molecular target: T9, IKK-alpha (Homo sapiens, UniProt O15111)
T9 construct: gene CHUK
Method in brief: as §1

[22] = molecular target: CDK2 (Homo sapiens, UniProt P24941)
Method in brief: as §1

[23] = molecular target: SGK2 (Homo sapiens, UniProt Q9HBY8)
Method in brief: as §1

[24] = molecular target: T10, ABL1(H396P)-nonphosphorylated (Homo sapiens, UniProt P00519, H396P)
T10 construct: nonphosphorylated
Method in brief: as §1

T1 sequence (Q13131 whole entry): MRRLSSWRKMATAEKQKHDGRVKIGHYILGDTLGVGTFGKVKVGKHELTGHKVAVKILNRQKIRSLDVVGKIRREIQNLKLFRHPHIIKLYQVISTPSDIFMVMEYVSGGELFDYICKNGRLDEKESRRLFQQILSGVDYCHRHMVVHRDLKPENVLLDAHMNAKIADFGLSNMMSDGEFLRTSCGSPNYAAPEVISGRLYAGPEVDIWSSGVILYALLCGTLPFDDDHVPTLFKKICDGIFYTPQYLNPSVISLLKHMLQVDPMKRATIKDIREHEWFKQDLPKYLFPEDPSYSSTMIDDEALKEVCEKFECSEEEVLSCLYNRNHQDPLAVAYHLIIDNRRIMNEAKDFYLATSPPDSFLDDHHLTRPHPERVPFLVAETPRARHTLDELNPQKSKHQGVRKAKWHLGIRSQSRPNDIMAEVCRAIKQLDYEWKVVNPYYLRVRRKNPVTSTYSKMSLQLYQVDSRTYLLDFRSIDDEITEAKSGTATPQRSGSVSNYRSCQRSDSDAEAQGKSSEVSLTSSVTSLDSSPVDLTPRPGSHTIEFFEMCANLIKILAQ

inhibition at 1 µM [1]: 1%
inhibition at 1 µM [2]: 0%
inhibition at 1 µM [3]: 15%
inhibition at 1 µM [4]: 0%
inhibition at 1 µM [5]: 3%
inhibition at 1 µM [6]: 4%
inhibition at 1 µM [7]: 0%
inhibition at 1 µM [8]: 0%
inhibition at 1 µM [9]: 12%
inhibition at 1 µM [10]: 6%
inhibition at 1 µM [11]: 0%
inhibition at 1 µM [12]: 6%
inhibition at 1 µM [13]: 0%
inhibition at 1 µM [14]: 0%
inhibition at 1 µM [15]: 1%
inhibition at 1 µM [16]: 10%
inhibition at 1 µM [17]: 0%
inhibition at 1 µM [18]: 8%
inhibition at 1 µM [19]: 0%
inhibition at 1 µM [20]: 0%
inhibition at 1 µM [21]: 33%
inhibition at 1 µM [22]: 0%
inhibition at 1 µM [23]: 0%
inhibition at 1 µM [24]: 31%
SMILES: CNS(=O)(=O)c1ccc(N(C)C)c(Nc2nc(C)nc3cc(OC)c(OC)cc23)c1 [compound 15, 3-((6,7-dimethoxy-2-methylquinazolin-4-yl)amino)-4-(dimethylamino)-N-methylbenzenesulfonamide]

Reference: paper PMC7180948, “New Insights into 4-Anilinoquinazolines as Inhibitors of Cardiac Troponin I–Interacting Kinase (TNNi3K)” (Molecules, 2020)
